{"source": "patent US9862679B2", "about": "“Potent and selective inhibitors of monoamine transporters; method of making; and use thereof” (priority 2013, dated 2018)", "key": {"[1]": {"test": "Metabolic stability in mouse plasma", "format": "in vitro ADME", "conditions": "for Metabolic stability, Plasma (% remaining): mouse plasma, 10 μM", "description": "The metabolic stability was evaluated using mouse plasma and mouse liver microsomes."}, "[2]": {"test": "Phase II (glucuronidation, UDPGA) metabolic stability in mouse liver microsomes", "format": "in vitro ADME", "description": "(§1) Phase I and phase II metabolic stability assay for was conducted in mouse liver microsomes. For phase I metabolism, the reaction was carried out with 100 mM potassium phosphate buffer, pH 7.4, in the presence of NADPH regenerating system (1.3 mM NADPH, 3.3 mM glucose 6-phosphate, 3.3 mM MgCl2, 0.4 U/mL glucose-6-phosphate dehydrogenase, 50 μM sodium citrate). Reactions in duplicate were initiated by addition of the liver microsomes to the incubation mixture (compound final concentration was 10 μM; 0.5 mg/mL microsomes). For phase II glucuronidation reaction compound was added to TRIS-HCl buffer (50 mM, pH 7.5) with microsomes (0.5 mg/mL), along with MgCl2 (8 mM), and alamethicin (25 μg/mL) and pre-incubated at 37° C. The reaction was initiated (in duplicate) with UDPGA at a final concentration of 2 mM. Negative controls in the absence NADPH and UDPGA were carried for both phase I and phase II metabolism respectively, to determine the specific cofactor free degradation. […] At predetermined times (0, 15, 30 and 60 min) aliquots of the mixture were removed and the reaction quenched by addition of two times the volume of ice cold acetonitrile spiked with the internal standard. Compound disappearance was monitored over time using a liquid chromatography and tandem mass spectrometry (LC/MS/MS) method.\n(§2) Compounds were separated on an Agilent 1290 UPLC system with a c18 column using a gradient run of 55:45-5:95 water:acetonitrile over 3.2 minutes and detected on an Agilent 6520 QTOF mass spectrometer."}, "[3]": {"test": "Phase I metabolic stability in mouse liver microsomes (NADPH)", "format": "in vitro ADME", "conditions": "10 μM", "description": "as §1, §2"}, "[4]": {"test": "Plasma pharmacokinetics in mice, 10 mg/kg i.v. and p.o.", "description": "(§3) Plasma was harvested from blood by centrifugation. Additionally at two selected time points (i.e. 30 min and 2 h) brains were collected following both oral and IV dosing. Samples were extracted from plasma by a single one-step protein precipitation method (as described in bioanalysis section below). For brain tissue, whole brains were weighed and homogenized in two times the volume of acetonitrile, followed by vortexing and centrifugation. Once extracted, the samples were analyzed via LC/MS/MS (as described in bioanalysis section below). Non-compartmental-analysis module in WinNonlin™ (version 5.3) was used to assess pharmacokinetic parameters including maximal concentration (Cmax), time to Cmax (Tmax), area under the curve (AUClast), area extrapolated to infinity (AUC0-∞), terminal disposition rate constant (ke), and terminal half-life (t½).\n(§4) Briefly, plasma samples were thawed on ice prior to extraction. Samples (50 μL) were extracted in 300 μL acetonitrile containing 1000 nM losartan as internal standard. For brain, 50 μL of the supernatant from homogenized tissue was extracted with 100 μL acetonitrile containing 1000 nM losartan as internal standard. Extracts were centrifuged at 16000×g at 4° C. for 10 minutes. Supernatants were transferred to a new siliconized tube and dried under N2 at 45° C. for 30 min. Samples were reconstituted with 100 μL of 30% acetonitrile, vortexed and centrifuged. Supernatants (95 μL) were transferred to a 250 μL polypropylene autosampler vials sealed with a Teflon cap and a volume of 10 μL was injected onto the ultra-performance liquid chromatography (UPLC) instrument for quantitative analysis using a temperature-controlled autosampler operating at 10° C.\n(§5) The instrument was controlled by the Xcalibur software 2.3 (Thermo Scientific). Samples were introduced to the interface through Turbo Ion Spray with the temperature setting at 350° C.\n(§6) Chromatographic analysis was performed using an Accela™ ultra high-performance system consisting of an analytical pump, and an autosampler coupled with TSQ Vantage mass spectrometer (Thermo Fisher Scientific Inc., Waltham Mass.)."}, "[5]": {"test": "Brain concentrations in mice after IV and PO dosing at 10 mg/kg", "conditions": "for concentration at 0.5 h / concentration at 2 h: male, CD1, mouse, in vivo, 10 mg/kg", "description": "as §3, §4, §5, §6"}, "[6]": {"test": "Negative control: mouse liver microsomes without cofactors", "format": "in vitro ADME", "conditions": "for Metabolic stability, Negative Control (% remaining): microsomes without cofactors", "description": "as §1, §2"}, "Swiss Webster mice": {"tested_on": "Swiss Webster mice", "test": "Mouse locomotor activity test", "conditions": "up to 30 mg/kg, versus cocaine"}, "[7]": {"conditions": "male, CD1, mouse, in vivo, iv, 10 mg/kg"}, "[8]": {"conditions": "male, CD1, mouse, in vivo, po, 10 mg/kg"}}, "data": [{"smiles": "Fc1ccc(C(SCCNCCCc2ccccc2)c2ccc(F)cc2)cc1", "note": "[Compound 4g, N-(2-((bis(4-fluorophenyl)methyl)thio)ethyl)-3-phenylpropan-1-amine]", "values": [{"measurement": "Metabolic stability, Plasma (% remaining)", "setting": "[1]; 0 min", "value": 100, "unit": "%"}, {"measurement": "Metabolic stability, Plasma (% remaining)", "setting": "[1]; 15 min", "value": 100, "unit": "%"}, {"measurement": "Metabolic stability, Plasma (% remaining)", "setting": "[1]; 30 min", "value": 99, "unit": "%"}, {"measurement": "Metabolic stability, Plasma (% remaining)", "setting": "[1]; 60 min", "value": 103, "unit": "%"}, {"measurement": "stability in mouse plasma", "setting": "[1]; over a period of 60 minutes", "value": "stable"}, {"measurement": "Metabolic stability, Phase II (% remaining)", "setting": "[2]; 0 min", "value": 100, "unit": "%"}, {"measurement": "Metabolic stability, Phase II (% remaining)", "setting": "[2]; 15 min", "value": 90, "unit": "%"}, {"measurement": "Metabolic stability, Phase II (% remaining)", "setting": "[2]; 30 min", "value": 77, "unit": "%"}, {"measurement": "Metabolic stability, Phase II (% remaining)", "setting": "[2]; 60 min", "value": 50, "unit": "%"}, {"measurement": "Metabolic stability, Phase I (% remaining)", "setting": "[3]; 0 min", "value": 100, "unit": "%"}, {"measurement": "Metabolic stability, Phase I (% remaining)", "setting": "[3]; 30 min", "value": 95, "unit": "%"}, {"measurement": "Metabolic stability, Phase I (% remaining)", "setting": "[3]; 60 min", "value": 77, "unit": "%"}, {"measurement": "bioavailability", "setting": "[4]; male, CD1, mouse, in vivo, 10 mg/kg, F % (absolute bioavailability), mouse, 10 mg/kg P.O. versus I.V.", "value": "~10", "unit": "%"}, {"measurement": "AUC(0-inf)", "setting": "[4]; [7]", "value": 2040, "unit": "µg·h/mL"}, {"measurement": "AUC(0-t)", "setting": "[4]; [7]", "value": 1.96, "unit": "µg·h/mL"}, {"measurement": "Tmax", "setting": "[4]; [7]", "value": 4.8, "unit": "min"}, {"measurement": "AUC(0-inf)", "setting": "[4]; [8]", "value": 203, "unit": "µg·h/mL"}, {"measurement": "AUC(0-t)", "setting": "[4]; [8]", "value": 0.155, "unit": "µg·h/mL"}, {"measurement": "Tmax", "setting": "[4]; [8]", "value": 30, "unit": "min"}, {"measurement": "Ke", "setting": "[4]; mouse plasma, 10 mg/kg I.V.", "value": 0.6952}, {"measurement": "concentration at 0.5 h", "setting": "[5]; iv", "value": 4780, "unit": "ng/g"}, {"measurement": "concentration at 2 h", "setting": "[5]; iv", "value": 14100, "unit": "ng/g"}, {"measurement": "concentration at 0.5 h", "setting": "[5]; po", "value": 369, "unit": "ng/g"}, {"measurement": "concentration at 2 h", "setting": "[5]; po", "value": 223, "unit": "ng/g"}, {"measurement": "brain penetrability", "setting": "[5]; mouse, following both p.o. and i.v. dosing", "value": "excellent brain penetrability"}, {"measurement": "Metabolic stability, Negative Control (% remaining)", "setting": "[6]; 0 min", "value": 100, "unit": "%"}, {"measurement": "Metabolic stability, Negative Control (% remaining)", "setting": "[6]; 15 min", "value": 104, "unit": "%"}, {"measurement": "Metabolic stability, Negative Control (% remaining)", "setting": "[6]; 30 min", "value": 97, "unit": "%"}, {"measurement": "Metabolic stability, Negative Control (% remaining)", "setting": "[6]; 60 min", "value": 119, "unit": "%"}, {"measurement": "metabolism in microsomes without the cofactors", "setting": "[6]; mouse liver microsomes, no NADPH/UDPGA", "value": "No metabolism was observed"}, {"measurement": "locomotor stimulation (ambulatory distance)", "setting": "Swiss Webster mice", "value": "does not produce locomotor stimulation"}]}]}
